{
  "source": "patent US12661336B2",
  "about": "“Polymorphs of phenyl pyrrole aminoguandium salts” (SYNACT PHARMA APS, priority 2021, dated 2026)",
  "key": {"[1]": {"assay": "Thermodynamic solubility of AP1189 salts in 0.5 M and 0.2 M buffer solutions (Example 6, Tables 38a, 38b)", "conditions": "for XRPD analysis of residual solids from solubility experiment / Solubility (mM freebase): 0.5 M buffer; for Solubility (mM freebase): 24 h"}, "[2]": {"conditions": "buffer solution pH 1.2, pH adjusted to 1.2 with concentrated hydrochloric acid, samples fully dissolved, HPLC", "experimental": "As a result, the pH was adjusted to 1.2 with concentrated hydrochloric acid in both solutions. Both sample preparations were diluted 500 times with the sample diluent (acetonitrile:water 1:1 v/v)."}, "[3]": {"conditions": "40° C./75% RH for 24 hours", "experimental": "The resulting mixture was thermally cycled for 3 days between 40° C. and 5° C. (Ramp rate: 0.1° C./min with isothermal holds of 1 hour at 40° C. and 5° C.).\nThe resulting mixture was thermally cycled for 3 days between 40° C. and 5° C. (Ramp rate: 0.1° C./min with isothermal holds of 1 hour at 40° C. and 5° C.). Solids were isolated by centrifuge filtration and analysed wet by XRPD. Sample was dried at 40° C. under vacuum for 24 hours then reanalysed by XRPD.\nThe resulting mixture was thermally cycled for 3 days between 40° C. and 5° C. (Ramp rate: 0.1° C./min with isothermal holds of 1 hour at 40° C. and 5° C.). Solids were isolated by centrifuge filtration and analysed wet by XRPD."}},
  "note": "Structures can show the parent of a compound that is named as a salt. Where two headings read alike, the source gives them in different places.",
  "data": [
    {"molecule": "CC(=O)O.N=C(N)NN=CC=Cc1cccn1-c1ccccc1[N+](=O)[O-]", "note": "[AP1189 acetate, N-{3-[1-(2-nitrophenyl)-1H-pyrrol-2-yl]-allylidene}-aminoguanidinium acetate]", "values": [
      {"measurement": "XRPD analysis of residual solids from solubility experiment", "setting": "[1]; pH 1.2", "value": "a likely HCl salt (assigned as HCl Pattern 1) was formed"},
      {"measurement": "XRPD analysis of residual solids from solubility experiment", "setting": "[1]; pH 4.5", "value": "remained"},
      {"measurement": "solubility, comparison of salts (in words)", "setting": "[1]; 0.5 M buffers, succinate Pattern 1 compared with fumarate Pattern 1", "value": "highest solubility"},
      {"measurement": "solubility at pH 1.2 (in words)", "setting": "[1]; pH 1.2", "value": "high solubility"},
      {"measurement": "Determined concentration in pH 1.2 samples, pH 1.2 (time)", "setting": "[2]", "value": ">223", "unit": "mg/mL"},
      {"measurement": "Determined concentration in pH 1.2 samples, pH 1.2 (time)", "setting": "[2]; time: acetate 5 h, succinate 0.5 h", "value": ">617 mM (5 h)"}
    ]},
    {"molecule": "N=C(N)NN=CC=Cc1cccn1-c1ccccc1[N+](=O)[O-].O=S(=O)(O)NC1CCCCC1", "note": "[Cyclamic Acid Pattern 5, N-{3-[1-(2-nitrophenyl)-1H-pyrrol-2-yl]-allylidene}-aminoguanidinium cyclamate]", "values": [
      {"measurement": "XRPD diffractogram after storage", "setting": "[3]", "value": "consistent with pattern 5"}
    ]},
    {"molecule": "N=C(N)N/N=C/C=C/c1cccn1-c1ccccc1[N+](=O)[O-]", "note": "[Fumarate Salt Pattern 1 (Form D)]", "values": [
      {"measurement": "Solubility (mM freebase)", "setting": "[1]; pH 1.2, thermodynamic solubility", "value": 7.84, "unit": "mM freebase"},
      {"measurement": "Solubility (mM freebase)", "setting": "[1]; pH 4.5, thermodynamic solubility", "value": 1.64, "unit": "mM freebase"}
    ]},
    {"molecule": "N-{3-[1-(2-nitrophenyl)-1H-pyrrol-2-yl]-allylidene}-aminoguanidinium edisylate [Ethane-1,2-disulfonic Acid Pattern 5]", "values": [
      {"measurement": "XRPD diffractogram after storage", "setting": "[3]", "value": "consistent with pattern 1"}
    ]},
    {"molecule": "N-{3-[1-(2-nitrophenyl)-1H-pyrrol-2-yl]-allylidene}-aminoguanidine glutaric acid salt [Glutaric Acid Pattern 1]", "values": [
      {"measurement": "XRPD diffractogram after storage", "setting": "[3]", "value": "resulted in a new pattern by XRPD (Pattern 4)"}
    ]}
  ]
}
